Molecular target: T1, N-terminal HiBiT tagged BCL-XL (Homo sapiens, UniProt Q07817)
T1 construct: expressed in transfected cells; host or cells: HT-1080 (ATCC CCL-121) cells stably transduced with lentivirus pLV-UBC-N-HiBiT-BCL-XL-PGK-puro
Assay: HiBiT based degradation assay
Assay type: cell-based
Conditions: HT1080 cells expressing N-terminal HiBiT tagged BCL-XL, BCL-XL level normalized with DMSO control
Text: Human BCL-XL protein coding open reading frame fused with N-terminal HiBiT coding sequence was synthesized from Integrated DNA Technologies (IDT). Next, N-HiBiT-BCL-XL sequence was cloned into pLV-UBC-PGK-Puro, a lentivirus plasmid purchased from Vectorbuilder, to generate pLV-UBC-N-HiBiT-BCL-XL-PGK-puro. Lentiviral particles were generated from Lenti-X™ 293T cells (Clontech) by co-transfection of pLV-UBC-N-HiBiT-BCL-XL-PGK-puro plasmids and lentiviral packaging plasmid mix (Cellecta). HT-1080 [HT1080](ATCC CCL-121) cells were infected with the lentivirus, and HT1080 cells stably integrated with the lentiviral vectors were established by incubation with […] puromycin (Thermofisher).
HT1080 cells expressing N-terminal HiBiT tagged BCL-XL were dispensed into a 384-well plate pre-spotted with compounds at varying concentrations. Three thousand cells were seeded into each well in 40 μL of RPMI 1640 media. […] After incubation, luminescence was read on a PHERAstar FSX Plate Reader (BMG). BCL-XL degradation at each indicated concentration was normalized with the DMSO control. The BCL-XL degradation curves were plotted using a four-parameter logistic model. For compounds displaying hook effects, the curve fitting was performed using the bottom point of the hook curves (i.e., the point of Ymin) as the bottom plateau to calculate EC50.

T1 sequence (Q07817 whole entry): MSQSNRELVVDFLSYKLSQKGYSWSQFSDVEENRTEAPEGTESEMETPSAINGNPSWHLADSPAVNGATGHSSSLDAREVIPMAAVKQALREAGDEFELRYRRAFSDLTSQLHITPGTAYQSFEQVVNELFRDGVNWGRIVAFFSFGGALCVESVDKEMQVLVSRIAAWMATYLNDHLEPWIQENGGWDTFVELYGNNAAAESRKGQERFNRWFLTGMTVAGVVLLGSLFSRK

| Compound | Ymin (6 h) | Ymin (24 h) |
| --- | --- | --- |
| Cc1c(O[C@H]2CC[C@H](CCC(=O)N3CCC(c4cc5c(cc4F)C(=O)N(C4CCC(=O)NC4=O)C5=O)CC3)CC2)cccc1-c1ccc(N2CCc3cccc(C(=O)Nc4nc5ccccc5s4)c3C2)nc1C(=O)O (stereo partly drawn) [Compound 140a, 6-(8-(benzo[d]thiazol-2-ylcarbamoyl)-3,4-dihydroisoquinolin-2(1H)-yl)-3-(3-(((1r,4r)-4-(3-(4-(2-(2,6-dioxopiperidin-3-yl)-6-fluoro-1,3-dioxoisoindolin-5-yl)piperidin-1-yl)-3-oxopropyl)cyclohexyl)oxy)-2-methylphenyl)picolinic acid] | C (Ymin ≥ 70%) | A (Ymin < 50%) |
| Cc1c(OCCCC[C@H]2CCCN(CC(=O)N3CCN(c4cc5c(cc4F)C(=O)N(C4CCC(=O)NC4=O)C5=O)CC3)C2)cccc1-c1ccc(N2CCc3cccc(C(=O)Nc4nc5ccccc5s4)c3C2)nc1C(=O)O (stereo partly drawn) [Compound 135b, 6-[8-(1,3-benzothiazol-2-ylcarbamoyl)-3,4-dihydro-1H-isoquinolin-2-yl]-3-[3-[4-[(3S)-1-[2-[4-[2-(2,6-dioxo-3-piperidyl)-6-fluoro-1,3-dioxo-isoindolin-5-yl]piperazin-1-yl]-2-oxo-ethyl]-3-piperidyl]butoxy]-2-methyl-phenyl]pyridine-2-carboxylic acid] | – | B (50% ≤ Ymin < 70%) |
| Cc1c(OCCC[C@@H]2CCN(CC(=O)N3CCN(c4cc5c(cc4F)C(=O)N(C4CCC(=O)NC4=O)C5=O)CC3)C2)cccc1-c1ccc(N2CCc3cccc(C(=O)Nc4nc5ccccc5s4)c3C2)nc1C(=O)O (stereo partly drawn) [Compound 122b, 6-[8-(1,3-benzothiazol-2-ylcarbamoyl)-3,4-dihydro-1H-isoquinolin-2-yl]-3-[3-[3-[(3R)-1-[2-[4-[2-(2,6-dioxo-3-piperidyl)-6-fluoro-1,3-dioxo-isoindolin-5-yl]piperazin-1-yl]-2-oxo-ethyl]pyrrolidin-3-yl]propoxy]-2-methyl-phenyl]pyridine-2-carboxylic acid] | – | B (50% ≤ Ymin < 70%) |
| Cc1c(O[C@H]2CC[C@H](CCCN3CCN(c4cc5c(cc4F)C(=O)N(C4CCC(=O)NC4=O)C5=O)CC3)CC2)cccc1-c1ccc(N2CCc3cccc(C(=O)Nc4nc5ccccc5s4)c3C2)nc1C(=O)O (stereo partly drawn) [Compound 112a, 6-(8-(benzo[d]thiazol-2-ylcarbamoyl)-3,4-dihydroisoquinolin-2(1H)-yl)-3-(3-(((1s,4r)-4-(3-(4-(2-(2,6-dioxopiperidin-3-yl)-6-fluoro-1,3-dioxoisoindolin-5-yl)piperazin-1-yl)propyl)cyclohexyl)oxy)-2-methylphenyl)picolinic acid] | B (50% ≤ Ymin < 70%) | C (Ymin ≥ 70%) |
| Cc1cc(OCCCC2CCN(CCN3CCN(c4cc5c(cc4F)C(=O)N(C4CCC(=O)NC4=O)C5=O)CC3)CC2)ccc1-c1ccc(N2CCc3cccc(C(=O)Nc4nc5ccccc5s4)c3C2)nc1C(=O)O (stereo not drawn) [Compound 121] | – | A (Ymin < 50%) |
| Cc1c(OCCCC2CCN(CC3CCN(c4cc5c(cc4F)C(=O)N(C4CCC(=O)NC4=O)C5=O)CC3)CC2)cccc1-c1ccc(N2CCc3cccc(C(=O)Nc4nc5ccccc5s4)c3C2)nc1C(=O)O (stereo not drawn) [Compound 143, 6-[8-(1,3-benzothiazol-2-ylcarbamoyl)-3,4-dihydro-1H-isoquinolin-2-yl]-3-[3-[3-[1-[[1-[2-(2,6-dioxo-3-piperidyl)-6-fluoro-1,3-dioxo-isoindolin-5-yl]-4-piperidyl]methyl]-4-piperidyl]propoxy]-2-methyl-phenyl]pyridine-2-carboxylic acid] | – | B (50% ≤ Ymin < 70%) |
| Cc1c(O[C@H]2CC[C@H](CCCC(=O)N3CCN(c4cc5c(cc4F)C(=O)N(C4CCC(=O)NC4=O)C5=O)CC3)CC2)cccc1-c1ccc(N2CCc3cccc(C(=O)Nc4nc5ccccc5s4)c3C2)nc1C(=O)O (stereo partly drawn) [Compound 139a, 6-(8-(benzo[d]thiazol-2-ylcarbamoyl)-3,4-dihydroisoquinolin-2(1H)-yl)-3-(3-(((1s,4r)-4-(4-(4-(2-(2,6-dioxopiperidin-3-yl)-6-fluoro-1,3-dioxoisoindolin-5-yl)piperazin-1-yl)-4-oxobutyl)cyclohexyl)oxy)-2-methylphenyl)picolinic acid] | – | B (50% ≤ Ymin < 70%) |
| Cc1c(OCCCCCCN2CCN(c3cc4c(cc3F)C(=O)N(C3CCC(=O)NC3=O)C4=O)CC2)cccc1-c1ccc(N2CCc3cccc(C(=O)Nc4nc5ccccc5s4)c3C2)nc1C(=O)O (stereo not drawn) [Compound 115] | C (Ymin ≥ 70%) | B (50% ≤ Ymin < 70%) |
| Cc1c(OCCCCCCCCN2CCN(c3cc4c(cc3F)C(=O)N(C3CCC(=O)NC3=O)C4=O)CC2)cccc1-c1ccc(N2CCc3cccc(C(=O)Nc4nc5ccccc5s4)c3C2)nc1C(=O)O (stereo not drawn) [Compound 108] | B (50% ≤ Ymin < 70%) | – |
| Cc1c(OCCC2CCN(CC(=O)N3CCN(c4cc5c(cc4F)C(=O)N(C4CCC(=O)NC4=O)C5=O)CC3)CC2)cccc1-c1ccc(N2CCc3cccc(C(=O)Nc4nc5ccccc5s4)c3C2)nc1C(=O)O (stereo not drawn) [Compound 106, 6-[8-(1,3-Benzothiazol-2-ylcarbamoyl)-3,4-dihydro-1H-isoquinolin-2-yl]-3-[3-[2-[1-[2-[4-[2-(2,6-dioxo-3-piperidyl)-6-fluoro-1,3-dioxo-isoindolin-5-yl]piperazin-1-yl]-2-oxo-ethyl]-4-piperidyl]ethoxy]-2-methyl-phenyl]pyridine-2-carboxylic acid] | B (50% ≤ Ymin < 70%) | – |
| Cc1c(OCCCCC2CCN(CC(=O)N3CCN(c4cc5c(cc4F)C(=O)N(C4CCC(=O)NC4=O)C5=O)CC3)CC2)cccc1-c1ccc(N2CCc3cccc(C(=O)Nc4nc5ccccc5s4)c3C2)nc1C(=O)O (stereo not drawn) [Compound 141] | B (50% ≤ Ymin < 70%) | B (50% ≤ Ymin < 70%) |

Reference: US20250282771A1, “TETRAHYDROISOQUINOLINE HETEROBIFUNCTIONAL BCL-XL DEGRADERS” (Treeline Biosciences, Inc., priority 2022, published 2025)
